The values that follow come from patent US7135466B2 (Kirin Beer Kabushiki Kaisha, priority 1999, dated 2006).

One test has as its target T1, c-kit (Homo sapiens, UniProt P10721).
T1 construct: MO7e (human megakaryocytic leukemia cell line) which had been arrested for 20 hr; endogenous in cells; host or cells: MO7e human megakaryocytic leukemia cell line
The test can be described thus: Inhibitory activity against c-kit autophosphorylation (MO7e cells, h-SCF). In kind it is cell-based. To be noted: for IC50: MO7e cells, h-SCF 50 ng/ml, read-out: c-kit IC50; for inhibition at 1 µM: Mo7e, figure in parentheses in −( ), at 1000 nM. A digest of the protocol: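 MO7e human megakaryocytic leukemia cells, arrested 20 hr, treated with compound 1 hr, then stimulated with 50 ng/ml h-SCF for 5 min and lysed. Lysates captured on immobilized anti-phosphotyrosine antibody, detected with anti-c-kit primary and HRP secondary antibody; absorbance at 450 nm.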

In the next test the target is T2, PDGF-Ra (Homo sapiens, UniProt P16234).
T2 construct: host or cells: G-292 human osteosarcoma cells
T2 sequence (P16234 24-1089): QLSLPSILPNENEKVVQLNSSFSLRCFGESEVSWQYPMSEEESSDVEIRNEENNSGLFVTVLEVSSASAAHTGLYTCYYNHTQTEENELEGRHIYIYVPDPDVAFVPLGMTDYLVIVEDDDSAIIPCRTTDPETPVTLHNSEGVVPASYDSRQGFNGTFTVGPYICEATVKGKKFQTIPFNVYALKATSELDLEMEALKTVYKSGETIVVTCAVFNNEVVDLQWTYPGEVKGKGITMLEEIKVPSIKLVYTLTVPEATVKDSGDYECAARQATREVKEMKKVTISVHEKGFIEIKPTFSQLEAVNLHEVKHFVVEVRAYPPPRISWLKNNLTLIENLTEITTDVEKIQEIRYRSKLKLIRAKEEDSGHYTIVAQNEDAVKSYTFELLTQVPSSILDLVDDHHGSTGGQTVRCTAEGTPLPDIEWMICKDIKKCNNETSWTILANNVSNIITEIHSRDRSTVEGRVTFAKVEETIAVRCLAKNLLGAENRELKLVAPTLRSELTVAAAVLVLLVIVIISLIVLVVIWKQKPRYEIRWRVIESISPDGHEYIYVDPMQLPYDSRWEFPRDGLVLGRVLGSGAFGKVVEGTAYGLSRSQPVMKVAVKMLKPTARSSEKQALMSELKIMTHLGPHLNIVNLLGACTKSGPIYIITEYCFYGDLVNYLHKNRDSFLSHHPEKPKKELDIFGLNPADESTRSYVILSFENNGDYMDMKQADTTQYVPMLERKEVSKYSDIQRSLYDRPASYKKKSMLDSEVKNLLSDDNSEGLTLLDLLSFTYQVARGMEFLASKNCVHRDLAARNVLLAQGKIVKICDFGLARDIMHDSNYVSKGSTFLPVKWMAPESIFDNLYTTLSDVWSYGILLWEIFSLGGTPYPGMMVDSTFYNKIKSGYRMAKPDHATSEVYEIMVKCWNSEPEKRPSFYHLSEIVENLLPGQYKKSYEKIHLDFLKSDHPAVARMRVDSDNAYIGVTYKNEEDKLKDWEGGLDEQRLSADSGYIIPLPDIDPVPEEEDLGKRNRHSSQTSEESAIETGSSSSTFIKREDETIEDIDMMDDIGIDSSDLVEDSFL
The test can be described thus: Inhibitory activity against PDGF-Ra phosphorylation by PDGF-AA stimulation using G292. It is filed as cell-based. Conditions: for IC50: Pharmacological Test Example 1, > means inhibition at indicated concentration not more than 50%, < and << not less than 50%, read-out: PDGF (E) IC50. A digest of the protocol:
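G-292 human osteosarcoma cells in 0.1% FBS medium overnight, given compound for 1 hr at 37° C, then PDGF-AA 50 ng/ml for 5 min. Lysates captured on anti-phosphotyrosine (PY-20) plates and probed with anti-PDGF-Ra plus HRP secondary; absorbance at 450 nm.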

T1 sequence (P10721 26-976): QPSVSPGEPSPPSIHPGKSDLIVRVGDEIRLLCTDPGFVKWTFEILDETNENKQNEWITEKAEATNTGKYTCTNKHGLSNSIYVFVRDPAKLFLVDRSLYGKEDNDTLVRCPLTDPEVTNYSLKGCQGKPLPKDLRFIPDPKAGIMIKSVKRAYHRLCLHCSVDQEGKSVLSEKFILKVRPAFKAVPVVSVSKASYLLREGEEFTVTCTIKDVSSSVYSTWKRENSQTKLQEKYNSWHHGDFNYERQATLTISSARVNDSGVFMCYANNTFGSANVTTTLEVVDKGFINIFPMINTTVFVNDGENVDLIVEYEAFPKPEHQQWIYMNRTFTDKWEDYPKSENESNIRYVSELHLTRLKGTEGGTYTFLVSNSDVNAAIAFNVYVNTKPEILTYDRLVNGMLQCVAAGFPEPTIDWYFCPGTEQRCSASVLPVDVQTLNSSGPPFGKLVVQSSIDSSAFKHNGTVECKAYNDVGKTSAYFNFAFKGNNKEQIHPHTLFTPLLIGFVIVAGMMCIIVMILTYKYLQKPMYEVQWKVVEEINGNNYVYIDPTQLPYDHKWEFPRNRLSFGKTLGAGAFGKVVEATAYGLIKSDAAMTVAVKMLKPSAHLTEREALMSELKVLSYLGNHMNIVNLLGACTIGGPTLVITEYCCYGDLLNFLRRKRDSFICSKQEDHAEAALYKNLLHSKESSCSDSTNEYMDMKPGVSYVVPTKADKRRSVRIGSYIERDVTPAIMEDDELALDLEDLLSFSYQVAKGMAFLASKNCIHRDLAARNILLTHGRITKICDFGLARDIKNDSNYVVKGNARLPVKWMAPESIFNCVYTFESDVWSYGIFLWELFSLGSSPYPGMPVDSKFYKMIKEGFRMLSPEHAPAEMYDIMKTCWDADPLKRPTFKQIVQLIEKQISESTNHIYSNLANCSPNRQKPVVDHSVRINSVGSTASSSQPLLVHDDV

Turning to `COc1cccc(OCCCOC(=O)Nc2ccc(Oc3ccnc4cc(OC)c(OC)cc34)c(C)c2C)c1` [Example 48, 3-(3-Methoxyphenoxy)propyl N-{4-[(6,7-dimethoxy-4-quinolyl)oxy]-2,3-dimethylphenyl}carbamate], the IC50 at c-kit was 162 nM; on PDGF-Ra it was under 10 nM.
Take `COc1cccc(OCCCOC(=O)Nc2ccc(Oc3ncnc4cc(OC)c(OC)cc34)cc2)c1` [Example 50, 3-(3-Methoxyphenoxy)propyl N-{4-[(6,7-dimethoxy-4-quinazolinyl)oxy]phenyl}carbamate]: the IC50 at c-kit was 50 nM; on PDGF-Ra it was under 10 nM.
On the same counts, the results for `COc1cccc(OCCCOC(=O)Nc2ccc(Oc3ncnc4cc(OC)c(OC)cc34)cc2Cl)c1` [Example 51, 3-(3-Methoxyphenoxy)propyl N-{2-chloro-4-[(6,7-dimethoxy-4-quinazolinyl)oxy]phenyl}carbamate] are 270 nM and 14 nM.
On the same counts, the results for `COc1cccc(C(C)OC(=O)Nc2ccc(Oc3ccnc4cc(OC)c(OC)cc34)cc2)c1` (stereo not shown) [Example 52, 1-(3-Methoxyphenyl)ethyl N-{4-[(6,7-dimethoxy-4-quinolyl)oxy]phenyl}carbamate] are 273 nM and under 10 nM.
For `COc1cccc(C(C)OC(=O)Nc2ccc(Oc3ccnc4cc(OC)c(OC)cc34)c(C)c2C)c1` (stereo not shown) [Example 53, 1-(3-Methoxyphenyl)ethyl N-{4-[(6,7-dimethoxy-4-quinolyl)oxy]-2,3-dimethylphenyl}carbamate], in that order: 480 nM and under 10 nM.
`COc1cccc(C(C)OC(=O)Nc2cc(C)c(Oc3ccnc4cc(OC)c(OC)cc34)cc2C)c1` (stereo not shown) [Example 54, 1-(3-Methoxyphenyl)ethyl N-{4-[(6,7-dimethoxy-4-quinolyl)oxy]-2,5-dimethylphenyl}carbamate]: the IC50 on c-kit amounted to 473 nM; at PDGF-Ra it was 15 nM.
On the same counts, the results for `COc1cccc(C(C)OC(=O)Nc2ccc(Oc3ncnc4cc(OC)c(OC)cc34)cc2)c1` (stereo not shown) [Example 55, 1-(3-Methoxyphenyl)ethyl N-{4-[(6,7-dimethoxy-4-quinazolinyl)oxy]phenyl}carbamate] are 288 nM and under 10 nM.
As for `COc1cccc(C(C)OC(=O)Nc2ccc(Oc3ncnc4cc(OC)c(OC)cc34)cc2Cl)c1` (stereo not shown) [Example 56, 1-(3-Methoxyphenyl)ethyl N-{2-chloro-4-[(6,7-dimethoxy-4-quinazolinyl)oxy]phenyl}carbamate], the IC50 at c-kit is 774 nM; at PDGF-Ra it was 11 nM.
As for `COc1cc2nccc(Oc3ccc(NC(=O)OCc4ccc(C(C)(C)C)cc4)cc3)c2cc1OC` [Example 57, 4-(Tert-butyl)benzyl N-{4-[(6,7-dimethoxy-4-quinolyl)oxy]phenyl}carbamate], the IC50 on c-kit stood at 393 nM; at PDGF-Ra, 11 nM.
As to `COc1cc2nccc(Oc3ccc(NC(=O)OCc4ccc(C(C)(C)C)cc4)c(C)c3C)c2cc1OC` [Example 58, 4-(Tert-butyl)benzyl N-{4-[(6,7-dimethoxy-4-quinolyl)oxy]-2,3-dimethylphenyl}carbamate], the IC50 at c-kit was 499 nM; at PDGF-Ra, 12 nM.
Take `COc1cc2nccc(Oc3cc(C)c(NC(=O)OCc4ccc(C(C)(C)C)cc4)cc3C)c2cc1OC` [Example 59, 4-(Tert-butyl)benzyl N-{4-[(6,7-dimethoxy-4-quinolyl)oxy]-2,5-dimethylphenyl}carbamate]: on c-kit, the inhibition at 1 µM stood at 33%. The IC50 on PDGF-Ra is 57 nM.
For `COc1cc2ncnc(Oc3ccc(NC(=O)OCc4ccc(C(C)(C)C)cc4)cc3)c2cc1OC` [Example 60, 4-(Tert-butyl)benzyl N-{4-[(6,7-dimethoxy-4-quinazolinyl)oxy]phenyl}carbamate], the IC50 on c-kit is 261 nM; on PDGF-Ra it was under 10 nM.
Take `COc1cc2ncnc(Oc3ccc(NC(=O)OCc4ccc(C(C)(C)C)cc4)c(Cl)c3)c2cc1OC` [Example 61, 4-(Tert-butyl)benzyl N-{2-chloro-4-[(6,7-dimethoxy-4-quinazolinyl)oxy]phenyl}carbamate]: at c-kit, the inhibition at 1 µM was determined as 32%. Besides, the IC50 on PDGF-Ra came out at 10 nM.
Regarding `COc1ccc(COC(=O)Nc2ccc(Oc3ccnc4cc(OC)c(OC)cc34)cc2)cc1OC` [Example 62, 3,4-Dimethoxybenzyl N-{4-[(6,7-dimethoxy-4-quinolyl)oxy]phenyl}carbamate], the IC50 at c-kit is 70 nM; at PDGF-Ra, 13 nM.
For `COc1ccc(COC(=O)Nc2ccc(Oc3ccnc4cc(OC)c(OC)cc34)c(C)c2C)cc1OC` [Example 63, 3,4-Dimethoxybenzyl N-{4-[(6,7-dimethoxy-4-quinolyl)oxy]-2,3-dimethylphenyl}carbamate], the figures for the IC50 on c-kit and at PDGF-Ra were 211 nM and 16 nM, respectively.
For `COc1ccc(COC(=O)Nc2cc(C)c(Oc3ccnc4cc(OC)c(OC)cc34)cc2C)cc1OC` [Example 64, 3,4-Dimethoxybenzyl N-{4-[(6,7-dimethoxy-4-quinolyl)oxy]-2,5-dimethylphenyl}carbamate], in that order: 429 nM and 90 nM.
On the same counts, the results for `COc1ccc(COC(=O)Nc2ccc(Oc3ncnc4cc(OC)c(OC)cc34)cc2)cc1OC` [Example 65, 3,4-Dimethoxybenzyl N-{4-[(6,7-dimethoxy-4-quinazolinyl)oxy]phenyl}carbamate] are 103 nM and under 10 nM.
Regarding `COc1ccc(COC(=O)Nc2ccc(Oc3ncnc4cc(OC)c(OC)cc34)cc2Cl)cc1OC` [Example 66, 3,4-Dimethoxybenzyl N-{2-chloro-4-[(6,7-dimethoxy-4-quinazolinyl)oxy]phenyl}carbamate], the figures for the IC50 at c-kit and at PDGF-Ra were 353 nM and 50 nM, respectively.
For `COc1ccc(OC)c(COC(=O)Nc2ccc(Oc3ccnc4cc(OC)c(OC)cc34)cc2)c1` [Example 67, 2,5-Dimethoxybenzyl N-{4-[(6,7-dimethoxy-4-quinolyl)oxy]phenyl}carbamate], in that order: 342 nM and under 10 nM.
In the case of `COc1ccc(OC)c(COC(=O)Nc2ccc(Oc3ccnc4cc(OC)c(OC)cc34)c(C)c2C)c1` [Example 68, 2,5-Dimethoxybenzyl N-{4-[(6,7-dimethoxy-4-quinolyl)oxy]-2,3-dimethylphenyl}carbamate], the values for the IC50 at c-kit and at PDGF-Ra were 294 nM and 13 nM, respectively.
On the same counts, the results for `COc1ccc(OC)c(COC(=O)Nc2cc(C)c(Oc3ccnc4cc(OC)c(OC)cc34)cc2C)c1` [Example 69, 2,5-Dimethoxybenzyl N-{4-[(6,7-dimethoxy-4-quinolyl)oxy]-2,5-dimethylphenyl}carbamate] are 755 nM and 53 nM.
For `COc1ccc(OC)c(COC(=O)Nc2ccc(Oc3ncnc4cc(OC)c(OC)cc34)cc2)c1` [Example 70, 2,5-Dimethoxybenzyl N-{4-[(6,7-dimethoxy-4-quinazolinyl)oxy]phenyl}carbamate], in that order: 451 nM and under 10 nM.
With `COc1ccc(OC)c(COC(=O)Nc2ccc(Oc3ncnc4cc(OC)c(OC)cc34)cc2Cl)c1` [Example 71, 2,5-Dimethoxybenzyl N-{2-chloro-4-[(6,7-dimethoxy-4-quinazolinyl)oxy]phenyl}carbamate], the inhibition at 1 µM at c-kit turned out to be 34%. For the same compound, on PDGF-Ra, the IC50 was 38 nM.
In the case of `COc1cc2nccc(Oc3ccc(NC(=O)OCCCSc4ccc(C(C)(C)C)cc4)cc3)c2cc1OC` [Example 72], the IC50 is 387 nM at c-kit and 36 nM at PDGF-Ra.
For `COc1cc2nccc(Oc3ccc(NC(=O)OCCCSc4ccc(C(C)(C)C)cc4)c(C)c3C)c2cc1OC` [Example 73, 3-{[4-(Tert-butyl)phenyl]sulfanyl}-propyl N-{4-[(6,7-dimethoxy-4-quinolyl)oxy]-2,3-dimethylphenyl}carbamate], the IC50 was 235 nM at c-kit and 28 nM at PDGF-Ra.
Regarding `COc1cc2ncnc(Oc3ccc(NC(=O)OCCCSc4ccc(C(C)(C)C)cc4)c(Cl)c3)c2cc1OC` [Example 76, 3-{[4-(Tert-butyl)phenyl]sulfanyl}propyl N-{2-chloro-4-[(6,7-dimethoxy-4-quinazolinyl)oxy]phenyl}carbamate], the inhibition at 1 µM on c-kit was determined as 14%. In addition, the inhibition at 0.1 µM on PDGF-Ra (G292, figure in parentheses in >100( ), at 100 nM, read-out: PDGF (E) inhibition (%) at 100 nM) came to 37%. The IC50 at PDGF-Ra was over 100 nM.
For the compound `COc1cc2nccc(Oc3ccc(NC(=O)OCCCSc4ccc(Cl)cc4C)cc3)c2cc1OC` [Example 77, 3-[(4-Chloro-2-methylphenyl)sulfanyl]propyl N-{4-[(6,7-dimethoxy-4-quinolyl)oxy]phenyl}carbamate], the IC50 on c-kit was 99 nM; at PDGF-Ra, under 10 nM.
Consider `COc1cc2nccc(Oc3ccc(NC(=O)OCCCSc4ccc(Cl)cc4C)c(C)c3C)c2cc1OC` [Example 78, 3-[(4-Chloro-2-methylphenyl)sulfanyl]propyl N-{4-[(6,7-dimethoxy-4-quinolyl)oxy]-2,3-dimethylphenyl}carbamate], for which the IC50 was 129 nM on c-kit and 16 nM on PDGF-Ra.
On the same counts, the results for `COc1cc2nccc(Oc3cc(C)c(NC(=O)OCCCSc4ccc(Cl)cc4C)cc3C)c2cc1OC` [Example 79, 3-[(4-Chloro-2-methylphenyl)sulfanyl]propyl N-{4-[(6,7-dimethoxy-4-quinolyl)oxy]-2,5-dimethylphenyl}carbamate] are 123 nM and 18 nM.
With `COc1cc2ncnc(Oc3ccc(NC(=O)OCCCSc4ccc(Cl)cc4C)cc3)c2cc1OC` [Example 80], the IC50 amounted to 137 nM at c-kit and 12 nM at PDGF-Ra.
